Measurements reported in patent EP4501920A1, “NOVEL PYRAZOLE DERIVATIVES” (Aptabio Therapeutics Inc., priority 2022, dated 2023).

Key:
[1] = test system: N27 (rat dopaminergic neural cell, Sigma) cells; assay: ROS production induced by alpha-synuclein preformed fibril (PFF) in dopaminergic neural cells (CellROX-Deep Red); assay type: cell-based; conditions: 0.001 µM, 24 hours, FIG. 2
Protocol: In order to confirm the effect of the compounds of Synthetic examples on ROS production from dopaminergic neural cells, ROS production was induced by alpha-synuclein preformed fibril (PFF) stimulation on N27 (rat dopaminergic neural cell, Sigma) cells and under this condition, the inhibitory effect of ROS production of the compounds of Synthetic examples was observed.
The N27 cells were cultured in RPMI medium containing 10% FBS, 1 µM angiotensin II, and the prepared cells were aliquoted at a concentration of 4×10^3 cells/well on a 6-well plate. The ROS production stimulus, PFF (preformed fibril) and the compounds of Synthetic examples were treated to the cells. After treating the compounds of Synthetic examples for 24 hours, fluorescence of each well was measured using CellROX-Deep Red reagent, thereby confirming the degree of ROS production.

[2] = test system: human foreskin fibroblasts (HFF-1, ATCC); assay: Collagen gel contraction induced by TGF-β1; assay type: cell-based; conditions: HFF-1 cells and bovine type I collagen; TGF-β1 (10 ng/ml); 72 hours; FIG. 7
Excerpt: In order to confirm the effect of the compounds of Synthetic examples on differentiation of fibroblasts into myofibroblasts, the inhibitory effect of the compounds of Synthetic examples on the phenomenon of contraction of gel induced by interaction of human foreskin fibroblasts (HFF-1, ATCC) and collagen was observed.
The mixed solution of the HFF-1 cells and collagen (bovine type I collagen) prepared at a concentration of 3×10^6 cells/ml was aliquoted in a 24 well plate, respectively, and then cultured under the condition of 5% CO2, 37 °C for 1 hour to induce gel polymerization. Then, after suspending the gel attached on the plate from the plate using a spoon, a medium comprising TGF-β1 and Synthetic example compounds was added to each well. After culturing for 72 hours, the Synthetic example compounds were treated by 10, 20, 30, 40, 60 and 80 µM to measure the size of the gel, and thereby, the degree of contraction of the gel by drug treatment was confirmed.

[3] = test system: alpha-synuclein preformed fibril (PFF) injection Parkinson's disease mouse model; assay: Brain damage treatment effect in PFF injection Parkinson's disease mouse model; assay type: in vivo, C57Bl/6 mice; conditions: 25 mg/kg orally once a day for 7 weeks
Protocol: In order to test the effect for preventing or treating brain disease or disorder of the compounds of Synthetic examples, it was evaluated using an alpha-synuclein preformed fibril (PFF) injection Parkinson's disease mouse model.
C57Bl/6 mice were used, and all the mice were maintained under the standard condition. The experiment was conducted by dividing the experimental animals into a normal control group in which distilled water was orally administered (negative control), an alpha-synuclein preformed fibril (PFF) injection Parkinson's disease induction group (vehicle control), and an experimental group in which the compound of Synthetic example 16 of 25 mg/kg was orally administered into the alpha-synuclein preformed fibril (PFF) injection Parkinson's induction group daily (Synthetic example) with 8 animals in each group. For the normal control group, physiological saline solution was administered, and the Synthetic example compound was orally administered once a day for 7 weeks, and then a behavior change experiment and a histopathological experiment were performed.
The behavior change was analyzed by Rota rod, pole test and hindlimb clasping, and the average value of the 3 experiments per each animal was measured. […]

[4] = test system: IL-6; assay: Expression of IL-6 in pancreatic cancer associated fibroblasts (ELISA); assay type: cell-based, human; conditions: P.CAF cells; compounds 10, 20, 30, 40, 60 and 80 µM for 48 hours; FIG. 5
Protocol: (§1) In order to confirm the effect of the compounds of Synthetic examples of the present invention on inflammation reaction in cancer associated fibroblasts, whether the expression of IL6 and IL8 was inhibited by the compounds of Synthetic examples in pancreatic cancer associated fibroblasts (PCAF) was observed.
(§2) After inoculating 1.5×10^5 cells in a 6 well plate and then culturing in P.CAF complete media for 48 hours, the compounds of Synthetic examples were treated by 10, 20, 30, 40, 60 and 80 µM for 48 hours according to each condition, and then the expression of IL-6 and IL-8 was confirmed by performing ELISA with Quantkine ELISA kit (R&D systems) as follows.
(§3) 100 µl of the culture solution in which the compounds of Synthetic examples were treated for 48 hours was added to the microplate strip for analysis including a 100 µl assay diluent and left at a room temperature for 2 hours and then the contents were removed, and then it was washed with 400 µl wash buffer 4 times. 200 µl of a human IL-6 or IL-8 conjugate was added and left at a room temperature for 2 hours and then the contents were removed, and then it was washed with 400 µl wash buffer 4 times. 200 µl of substrate solution was added and left at a room temperature for 20 minutes and then 50 µl of stop solution was added, and the absorbance at a wavelength of 450nm was measured within 30 minutes to confirm the expression level of IL-6 and IL-8.

[5] = test system: IL-8; assay: Expression of IL-8 in pancreatic cancer associated fibroblasts (ELISA); assay type: cell-based, human; conditions: P.CAF cells; compounds 10, 20, 30, 40, 60 and 80 µM for 48 hours; FIG. 6
Protocol: as §1, §2, §3

[6] = test system: LX-2 (human hepatic stellate cells); assay: ROS production induced by PMA in LX-2 cells; assay type: cell-based; conditions: FIG. 1
Excerpt: (§4) In order to confirm the effect of the compounds of Synthetic examples on ROS production from fibroblasts and specific substrate cells, ROS production was induced by stimulation of PMA (phorbol 12-myristate 13-acetate), TGF-β1, palmitate or high concentration-glucose, or the like, in HL-60 cells differentiated into neutrophil cells by DMSO treatment, NHLF (normal human lung fibroblast, Lonza), LX-2 (human hepatic stellate cells, Sigma), ARPE19 (human retinal pigment epithelial cell, ATCC), and KEL-FIB (Keloid fibroblast, ATCC) cells, and under this condition, the inhibitory effect of ROS production of the compounds of Synthetic examples was observed.
(§5) The NHLF (normal human lung fibroblast, Lonza), LX-2 (human hepatic stellate cells, Sigma), ARPE19 (human retinal pigment epithelial cell, ATCC), KEL-FIB (keloid fibroblast, ATCC) cells were suspended in a culture medium containing 10% FBS and aliquoted on a 96 well plate and then cultured under the condition of 5% CO2, 37°C for 24 hours. After pre-treating the compounds of Synthetic examples at a concentration of 10, 20, 30, 40, 60 and 80 µM for 30 minutes to 1 hour, the ROS stimulus was treated to each well containing the cells and drug. After additional culturing for 48 hours, the ROS production level was confirmed using L-012 or DCF-DA.

[7] = test system: NHLF (normal human lung fibroblast); assay: ROS production induced by PMA in NHLF cells; assay type: cell-based; conditions: FIG. 1
Excerpt: as §4, §5

| SMILES | ROS production induced by PFF [1] | contraction of the gel induced by TGF-β1 [2] | IL-6 expressed in P.CAF [4] | IL-8 expressed in P.CAF [5] | further results |
| --- | --- | --- | --- | --- | --- |
| Oc1c2c(nn1-c1ccccn1)CCC(Nc1ccc(F)c(F)c1)C2 (stereo not drawn) [Compound 32, 5-(3,4-Difluorophenylamino)-2-(pyridin-2-yl)-4,5,6,7-tetrahydro-2H-indazol-3-ol] | effectively inhibited |  |  |  |  |
| CN1CCN(C2CCc3nn(-c4ccccn4)c(O)c3C2)CC1 (stereo not drawn) [Compound 16, 5-(4-Methylpiperazin-1-yl)-2-(pyridin-2-yl)-4,5,6,7-tetrahydro-2H-indazol-3-ol] | effectively inhibited | effectively inhibited |  |  | Parkinson-like behavior symptoms improved ([3]; Rota rod, pole test, hindlimb clasping): ≥ 50%; aggregation and accumulation of a-synuclein improved ([3]; striatum histopathology): ≥ 50% |
| COc1cccc(CN(C)C2CCc3nn(-c4ccccn4)c(O)c3C2)c1 (stereo not drawn) [Compound 13, 5-[(3-Methoxybenzyl)methylamino]-2-(pyridin-2-yl)-4,5,6,7-tetrahydro-2H-indazol-3-ol] |  | effectively inhibited |  |  |  |
| CN(C1CCc2nn(-c3ccccn3)c(O)c2C1)C1CCCc2cccnc21 (stereo not drawn) [Compound 33, 5-[Methyl(5,6,7,8-tetrahydroquinolin-8-yl)amino]-2-(pyridin-2-yl)-4,5,6,7-tetrahydro-2H-indazol-3-ol] |  | effectively inhibited | effectively inhibited | effectively inhibited |  |
| CN(Cc1ccc(F)cc1F)C1CCc2nn(-c3ccccn3)c(O)c2C1 (stereo not drawn) [Compound 5, 5-[(2,4-Difluorobenzyl)methylamino]-2-(pyridin-2-yl)-4,5,6,7-tetrahydro-2H-indazol-3-ol] |  | effectively inhibited | effectively inhibited | effectively inhibited |  |
| CN(Cc1cccc(S(C)(=O)=O)c1)C1CCc2nn(-c3ccccn3)c(O)c2C1 (stereo not drawn) [Compound 23, 5-[Methyl(3-methylsulfonylbenzyl)amino]-2-(pyridin-2-yl)-4,5,6,7-tetrahydro-2H-indazol-3-ol] |  | effectively inhibited | effectively inhibited | effectively inhibited |  |
| CN(Cc1ccc(S(C)(=O)=O)cc1)C1CCc2nn(-c3ccccn3)c(O)c2C1 (stereo not drawn) [Compound 12, 5-[(4-Methanesulfonylbenzyl)methylamino]-2-(pyridin-2-yl)-4,5,6,7-tetrahydro-2H-indazol-3-ol] | effectively inhibited | effectively inhibited |  |  |  |
| CN(Cc1cc2ccccc2cn1)C1CCc2nn(-c3ccccn3)c(O)c2C1 (stereo not drawn) [Compound 62, 5-[(Isoquinolin-3-ylmethyl)methylamino]-2-(pyridin-2-yl)-4,5,6,7-tetrahydro-2H-indazol-3-ol] |  | effectively inhibited | effectively inhibited | effectively inhibited |  |
| Oc1c2c(nn1-c1ccccn1)CCC(N1CCCCC1)C2 (stereo not drawn) [Compound 14, 5-Piperidin-1-yl-2-(pyridin-2-yl)-4,5,6,7-tetrahydro-2H-indazol-3-ol] |  | effectively inhibited |  |  |  |
| O=C(C1CC1)N1CCN(C2CCc3nn(-c4ccccn4)c(O)c3C2)CC1 (stereo not drawn) [Compound 38, Cyclopropyl[4-(3-hydroxy-2-(pyridin-2-yl)-4,5,6,7-tetrahydro-2-indazol-5-yl)piperazin-1-yl]methanone] |  | effectively inhibited | effectively inhibited | effectively inhibited |  |
| CN(Cc1ccc2ncccc2c1)C1CCc2nn(-c3ccccn3)c(O)c2C1 (stereo not drawn) [Compound 63, 5-[Methyl(quinolin-6-ylmethyl)amino]-2-(pyridin-2-yl)-4,5,6,7-tetrahydro-2H-indazol-3-ol] |  | effectively inhibited | effectively inhibited | effectively inhibited |  |
| OCCOCCN1CCN(C2CCc3nn(-c4ccccn4)c(O)c3C2)CC1 (stereo not drawn) [Compound 17] |  |  |  |  | ROS production induced by PMA [6]: inhibited; ROS production induced by PMA [7]: inhibited |
| CN1CCN(C2CCc3nn(-c4ccc(C(F)(F)F)cn4)c(O)c3C2)CC1 (stereo not drawn) [Compound 82, 5-(4-Methylpiperazin-1-yl)-2-(5-(trifluoromethyl)pyridin-2-yl)-4,5,6,7-tetrahydro-2H-indazol-3-ol] | effectively inhibited |  |  |  |  |
